{"source": "paper PMC4303209", "about": "“A novel phosphatidylinositol 3-kinase (PI3K) inhibitor directs a potent FOXO-dependent, p53-independent cell cycle arrest phenotype characterized by the differential induction of a subset of FOXO-regulated genes” (Breast Cancer Research : BCR, 2014)", "test_system": "MCF-7", "test": "Cell cycle analysis by flow cytometry (propidium iodide)", "assay_type": "cell-based, human", "conditions": "MCF7 and U2OS with siRNA knockdown; data not shown"}
{"molecule": "O=c1[nH]cc(F)c(=O)[nH]1", "note": "[5-fluorouracil]", "values": [{"measurement": "cell cycle arrest response (control)", "value": "potent p53-dependent cell cycle arrest response"}]}
